A short description of test [1]: Inhibition of rat DNA polymerase in absence of bovine serum albumin.
Test [2] deals with Mus musculus. Description: Antiinflammatory activity against croton oil-induced ear edema in mouse. The class given is functional.
Test [3] can be described thus: Inhibition of rat DNA polymerase in presence of bovine serum albumin.

As usually defined, the IC50 is the concentration that gives 50% inhibition. Consider `C[C@H]1[C@H](C)CC[C@]2(C(=O)O)CC[C@]3(C)C(=CC[C@@H]4[C@@]5(C)CC[C@H](O)C(C)(C)[C@@H]5CC[C@]43C)[C@H]12` [URSOLIC ACID], for which the IC50 in test [1] was found to be 4.8 µM; in test [3] it was 8.5 µM. The same compound gave an ID50 in test [2] of 0.14 µmol.

Regarding `CC1(C)CC[C@]2(C(=O)O)CC[C@]3(C)C(=CC[C@@H]4[C@@]5(C)CC[C@H](O)C(C)(C)[C@@H]5CC[C@]43C)[C@@H]2C1` [OLEANOLIC_ACID], the IC50 in test [1] amounted to 3.7 µM; in test [3] it was 7.5 µM.

Compound `COc1ccc2c(c1)c(CC(=O)O)c(C)n2C(=O)c1ccc(Cl)cc1` [INDOMETHACIN] returned an ID50 in test [2] of 0.26 µmol.

For the origin of these results see ChEMBL document CHEMBL1157303, “Bioactive triterpenoids from Salvia species” (J Nat Prod, 2006).
